Experimental data as given in patent US9757350B2, “Small molecule inhibitors of replication protein A that also act synergistically with cisplatin” (Indiana University Research and Technology Corp., priority 2010, dated 2017).

Key:
Format in all cases: cell-based
[1] = tested on: A549 cells; test: Crystal violet cell viability assay, A549; settings: 48 hours
Protocol: Referring now to FIG. 11A. Gel showing effect of MCI13E on DNA-RPA binding. […] Cytotoxicity was analyzed via crystal violet analysis as described in “methods” 48 hours following MCI13E treatment. Data represent the average and standard deviation of four replicate experiments with each replicate containing triplicate determinations and the circles represent data from H460 cells and squares A549 cells. Referring now to FIG. 11C. Graph of MCI13E induced death via apoptosis in NSCLC cell lines. Cell were treated with the indicated concentrations of MCI13E for 48 hours and analyzed for the induction of apoptosis via Annexin V/PI staining Referring now to FIG. 11D. Graph of cell survival as a function of [MCI1EC]. Percent survival was calculated for each cell line using untreated cells as a control. Data presented are the average and standard deviation from four replicate experiments. […]
Cell Viability Assays—A crystal violet cell viability assay was performed to determine cytotoxicity of SMI. […] Stained cells were resuspended in 500 μl DMSO containing 1% SDS and absorbance was measured at 590 nm in a SpectraMax M5 plate reader (Molecular Devices, Sunnyvale, Calif.) and analyzed using SoftMax Pro 5.2. Percent viability is taken as an absorbance percentage against control untreated cells. […]

[2] = tested on: H460 cells; test: Crystal violet cell viability assay, H460
Protocol: Referring now to FIG. 11A. Gel showing effect of MCI13E on DNA-RPA binding. […] Cytotoxicity was analyzed via crystal violet analysis as described in “methods” 48 hours following MCI13E treatment. Data represent the average and standard deviation of four replicate experiments with each replicate containing triplicate determinations and the circles represent data from H460 cells and squares A549 cells. Referring now to FIG. 11C. Graph of MCI13E induced death via apoptosis in NSCLC cell lines. Cell were treated with the indicated concentrations of MCI13E for 48 hours and analyzed for the induction of apoptosis via Annexin V/PI staining Referring now to FIG. 11D. Graph of cell survival as a function of [MCI1EC]. Percent survival was calculated for each cell line using untreated cells as a control. Data presented are the average and standard deviation from four replicate experiments. Experiments were performed in non-small cell lung cancer (NSCLC) cell lines A549 (squares), an adenocarcinoma, and the large cell carcinoma H460 cell line (circles).
Cell Viability Assays—A crystal violet cell viability assay was performed to determine cytotoxicity of SMI. Lung cancer cell lines, A549 and H460, were plated in 24-well dishes at 5×10^4 total cells. Forty-eight hours after plating, the cells were treated for […] with variable concentrations of SMIs. The media was aspirated, cells washed with 500 μl of PBS/EDTA and stained for 10 minutes with crystal violet solution (50% Ethanol, 0.75% crystal violet). Stained cells were resuspended in 500 μl DMSO containing 1% SDS and absorbance was measured at 590 nm in a SpectraMax M5 plate reader (Molecular Devices, Sunnyvale, Calif.) and analyzed using SoftMax Pro 5.2. Percent viability is taken as an absorbance percentage against control untreated cells. Values plotted represent four separate plate replicates and each plate replicate contained three assay replicates per plate.

[3] = tested on: A549 cells; test: Combination index study with cisplatin (Chou-Talalay), crystal violet; settings: for Interaction with cisplatin, sequential treatment: A549, cisplatin 24 h, then SMI 24 h
Protocol: Synergy with cisplatin—Analyses thus far indicate that inhibition of RPA is effective in eliciting effects consistent with inhibition of RPAs role in cell cycle progression and DNA replication. To assess if SMI treatment impacts RPAs role in DNA repair, how MCI13E or MCI13F treatment influences cellular sensitivity to cisplatin was assessed. […] Cisplatin-induced DNA damage is primarily repaired via NER and homologous recombination. […] Initially, a concurrent approach, similar to that described for another RPA SMI, TDRL-505 (1) was used. Briefly, A549 cells were treated for 48 hours with MCI13E, cisplatin, or combination treatment, with viability determined via crystal violet staining. […] Next, a sequential treatment protocol was used, first treating cells with cisplatin for 24 hours, then adding the SMI and incubating for an additional 24 hours.
Combination Index—Studies Combination index studies, performed with combination SMI and cisplatin treatment, were used to determine the level of synergy or antagonism between the two compounds. Referring now to FIG. 19A, a schematic illustrating Sequential treatment with cisplatin and MCI13E, and FIG. 19B, a schematic illustrating concurrent treatment with cisplatin and MCI13E. Cells received the same concentration of cisplatin or MCI13E but the time the cells were treated with cisplatin varied whereas treatment time with MCI remained the same between the two treatment methods.
Briefly, A549 cells were plated as described above in 24-well dishes (5×10^4 cells per well) and treated either concurrently or sequentially with single agent cisplatin or MCI treatment or with combination treatments. […] Following 48 hours of total treatment cells were analyzed for viability using the crystal violet assay described above and combination index values were calculated based on the Chou and Talalay method (15) as we have previously described (1,23).

[4] = tested on: p53; test: Western blot of p53 serine-15 phosphorylation; settings: A549, western blot
Protocol: Real-Time PCR—A549 cells were plated in 10 cm dishes at 1.5×10^6, allowed to adhere, and treated for 24-48 hours with cisplatin or SMIs (5 μM). Referring now to FIG. 16B, Western blot of cells treated sequentially. For sequential treatment, A549 cells were exposed to cisplatin for 24 hours followed by the addition of SMIs for another 24 hours as above. Referring now to FIG. 16A, A549 cells were treated sequentially or concurrently with cisplatin (5 μM) and MCI13E or MCI13F for 24 total hours. Lysates were probed for p53-ser15-phosphorylation or phosphorylated-ATM. GAPDH was probed as a loading control. Concurrently treated cells were incubated simultaneously with both cisplatin and MCIs for 24 hours. RNA was extracted using RNeasy minikit (Qiagen, Germantown, Md.) per manufacturer's protocol. cDNA was generated using Applied Biosystem's (ABI) High Capacity RNA-to-cDNA kit. Validated gene primer/probe sets, also from ABI, were used for Quantitative Real Time-PCR. ABI's ΔΔCT Relative Quantification methodology was used for the analyses (applied Biosystems). Data were normalized to the housekeeping gene GAPDH and calibrated to the mock treated samples. Results presented are the average of two separate cell treatments/RNA isolations with duplicate Taqman Assays per RNA sample set. […]

Structure (SMILES) | IC50 [1] [µM] | IC50 ([2]; 48 hours, crystal violet) [µM] | Interaction with cisplatin, concurrent treatment ([3]; A549, 48 hours together) | Interaction with cisplatin, sequential treatment [3] | p53 serine-15 phosphorylation, single agent [4] | IC50 ([2]; 48 hours after exposing the cells) [µM]
CC1(C)C2CCC1(C)C(OC(=O)CBr)C2 (racemic) [MCI13E, (+/−)-Isobornyl bromoacetate] | ~5 | ~5 | antagonistic effect | synergizing with cisplatin at higher dosing concentrations | minimal single-agent effects on p53 phosphorylation | –
CC1(C)C2CCC1(C)C(OC(=O)CI)C2 (racemic) [MCI13F, (+/−)-Isobornyl iodoacetate] | ~5 | ~5 | – | synergy with cisplatin at all tested concentrations | minimal single-agent effects on p53 phosphorylation | 4
